Where “and” joins values, the source holds several entries; their conditions need not be identical. Equal values may be shown once. Read-outs that look alike come from different tables or passages of the source.
Legend:
[1] = system: blood-brain and blood-CSF barriers; assay: In situ brain/choroid plexus perfusion with capillary depletion: CNS uptake of [3H]-arginine in absence and presence of transporter inhibitors; type: in vivo, adult male BALB/c mice; settings: 4 mM BCH or 500 μM α-methyl-D,L-tryptophan; for effect on [3H]-arginine uptake: majority of brain regions sampled
Method: (§1) The in situ brain/choroid plexus perfusion method was performed as previously described and will only be briefly detailed here. […] At the end of the perfusion period a CSF sample was taken from the cisterna magna, the animal was decapitated, the brain removed and samples taken under a Leica S4E L2 stereomicroscope (Leica; Buckinghamshire, UK). […] The circumventricular organs (CVOs) including the choroid plexus, pituitary gland and pineal gland were also sampled. Brain samples were also taken for capillary depletion analysis.
(§2) Both the physiological capillary depletion buffer and dextran solution were maintained at 4 °C to halt any cell metabolism and transport processes, and to reduce any cellular or protein damage due to heat generated from the homogenisation process. The whole brain homogenate was then taken for dextran density centrifugation (5,400 x g) and 4 °C to produce an endothelial cell-enriched pellet and supernatant containing brain parenchyma.
(§3) The transporter proteins these inhibitors target are listed in S1 Table in S1 File.
(§4) % change=RTissue−RInhibition /RTissue× 100 (2)

[2] = system: blood-brain and blood-CSF barriers; assay: In situ brain/choroid plexus perfusion with capillary depletion: CNS uptake of [3H]-ADMA in absence and presence of transporter inhibitors; settings: for % inhibition of [3H]-ADMA uptake: L-homoarginine 20 mM, BCH 4 mM, L-phenylalanine 200 μM, L-leucine 5 mM, harmaline 2 mM; for RBrain, [3H]-ADMA alone: 10 min perfusion, mean±SEM; for RBrain, [3H]-ADMA alone / uptake of [3H]-ADMA: [14C]-sucrose corrected; for uptake of [3H]-ADMA: S14 Fig
Method: as §1, §2, §3, §4

[3] = system: blood-brain and blood-CSF barriers; assay: Self-inhibition experiments: [3H]-ADMA uptake with 0.5-500 μM unlabelled ADMA and kinetic constants (Km, Vmax, Kd); type: in vivo, adult male BALB/c mice; settings: for Km: read-out: Km (half-saturation constant) of [3H]-ADMA influx
Source text: At the end of the perfusion period a CSF sample was taken from the cisterna magna, the animal was decapitated, the brain removed and samples taken under a Leica S4E L2 stereomicroscope (Leica; Buckinghamshire, UK). The samples included the frontal cortex, caudate nucleus, occipital cortex, hippocampus, hypothalamus, thalamus, pons and cerebellum. The circumventricular organs (CVOs) including the choroid plexus, pituitary gland and pineal gland were also sampled. Brain samples were also taken for capillary depletion analysis.
A series of single-time point experiments involved varying the unlabelled concentration of ADMA in the artificial plasma and measuring the [^3H]-ADMA uptake into the brain regions, capillary depletion samples, CVOs and CSF after 10 min of perfusion. […] This enabled calculation of the kinetic constants; Vmax (the maximal influx rate of the saturable component), Km (the half-saturation constant) and Kd (the constant of non-saturable diffusion).
In the case where the uptake of the radiolabelled test amino acid is examined in the presence of various unlabelled concentrations of the same test solute, Kin, can be defined as in equation 4:
Kin= Vmax/Km+ Cpl+ Kd (5)
Unidirectional ADMA flux (Jin) into the brain (nmol.min^-1.g^-1) and CSF (nmol.min^-1.ml^-1) was determined using equations 6 and 7:
Jin=VmaxCpl/Km+ Cpl+ KdCpl (8)
This constant of non-saturable diffusion was then used to calculate a non-saturable flux which could be subtracted from the total flux to determine the saturable flux. […] In some cases, there was no measurable non-saturable component and so estimates of Vmax and Km were obtained from plots of total flux, which was equal to the saturable flux.

[4] = CSF, choroid plexus and pituitary gland
[5] = homogenate, supernatant, pellet
[6] = brain and choroid plexus (up to), system B0,+ inhibitors
[7] = brain homogenate or supernatant
[8] = caudate nucleus, α-methyl-D,L-tryptophan 500 μM
[9] = occipital cortex, α-methyl-D,L-tryptophan 500 μM
[10] = pineal gland, α-methyl-D,L-tryptophan 500 μM

CC(N)(Cc1c[nH]c2ccccc12)C(=O)O (racemic) [α-methyl-D,L-tryptophan, reference compound]
effect on [3H]-arginine distribution [1, 4]: no statistically significant effect
effect on [3H]-arginine distribution [1, 5]: no significant effect
effect on [3H]-arginine uptake [1]: did not significantly affect
inhibition of [3H]-ADMA uptake [2, 6]: up to 50.0%
effect on [3H]-ADMA uptake [2, 7]: did not significantly affect
% inhibition of [3H]-ADMA uptake [2, 8]: 49.1%
% inhibition of [3H]-ADMA uptake ([2]; frontal cortex, α-methyl-D,L-tryptophan 500 μM): 48.0%
% inhibition of [3H]-ADMA uptake [2, 9]: 45.5%
% inhibition of [3H]-ADMA uptake [2, 10]: 80.6%

NC1(C(=O)O)CC2CCC1C2 (stereo not drawn) [BCH, 2-amino-endo-bicyclo[2.2.1]heptane-2-carboxylic acid, reference compound]
effect on [3H]-arginine distribution [1, 4]: no statistically significant effect
effect on [3H]-arginine distribution [1, 5]: no significant effect
effect on [3H]-arginine uptake [1]: did not significantly affect
inhibition of [3H]-ADMA uptake [2, 6]: up to 50.0%
effect on [3H]-ADMA uptake [2, 7]: did not significantly affect
% inhibition of [3H]-ADMA uptake [2, 8]: 37.5%
% inhibition of [3H]-ADMA uptake ([2]; choroid plexus): 50.0%
% inhibition of [3H]-ADMA uptake ([2]; hippocampus, α-methyl-D,L-tryptophan 500 μM): 36.6%
% inhibition of [3H]-ADMA uptake ([2]; hypothalamus, α-methyl-D,L-tryptophan 500 μM): 36.8%
% inhibition of [3H]-ADMA uptake [2, 9]: 34.2%
% inhibition of [3H]-ADMA uptake [2, 10]: 65.6%
% inhibition of [3H]-ADMA uptake ([2]; pituitary gland): 61.5%

COc1ccc2c3c([nH]c2c1)C(C)=NCC3 [Harmaline, harmaline, reference compound]
effect on [3H]-ADMA uptake ([2]; brain and choroid plexus): significantly inhibited
effect on [3H]-ADMA uptake [2, 7]: did not significantly affect

N[C@@H](Cc1ccccc1)C(=O)O [L-phenylalanine, reference compound]
inhibition of [3H]-ADMA uptake ([2]; phenylalanine, some regions of the brain and the choroid plexus (up to)): up to 66.4%

CN(C)C(N)=NCCC[C@H](N)C(=O)O [[^3H]-ADMA, asymmetric dimethylarginine]
uptake into pellet, times lower than into choroid plexus ([2]; 10 minutes): 124.2 times
RBrain, [3H]-ADMA alone ([2]; CSF): 26.72±8.84 ml.100g^-1
RBrain, [3H]-ADMA alone ([2]; caudate nucleus): 24.07±2.92 ml.100g^-1
RBrain, [3H]-ADMA alone ([2]; cerebellum): 17.65±1.52 (n=4) ml.100g^-1
RBrain, [3H]-ADMA alone ([2]; choroid plexus): 260.9±42.45 ml.100g^-1
uptake of [3H]-ADMA ([2]; choroid plexus, 10 minutes): 260.85 ± 42.45 ml.100g^-1
RBrain, [3H]-ADMA alone ([2]; frontal cortex): 24.94±3.50 ml.100g^-1
uptake of [3H]-ADMA ([2]; frontal cortex, 10 minutes): 24.94 ± 3.50 ml.100g^-1
RBrain, [3H]-ADMA alone ([2]; hippocampus): 21.74±1.75 ml.100g^-1
RBrain, [3H]-ADMA alone ([2]; homogenate (capillary depletion)): 17.70±3.10 (n=4) ml.100g^-1
RBrain, [3H]-ADMA alone ([2]; hypothalamus): 30.42 ± 2.98 ml.100g^-1
RBrain, [3H]-ADMA alone ([2]; occipital cortex): 22.52±1.65 ml.100g^-1
RBrain, [3H]-ADMA alone ([2]; pellet (capillary depletion)): 2.62±0.88 (n=4) ml.100g^-1
RBrain, [3H]-ADMA alone ([2]; pineal gland): 194.1±48.46 ml.100g^-1
RBrain, [3H]-ADMA alone ([2]; pituitary gland): 182.9±32.28 ml.100g^-1
RBrain, [3H]-ADMA alone ([2]; pons): 24.64±3.44 ml.100g^-1
RBrain, [3H]-ADMA alone ([2]; supernatant (capillary depletion)): 10.03 ± 1.06 (n=4) ml.100g^-1
RBrain, [3H]-ADMA alone ([2]; thalamus): 21.09±1.74 ml.100g^-1
non-saturable component of [3H]-ADMA flux ([3]; CSF): no non-saturable component
Vmax (maximal influx rate of the saturable component) of [3H]-ADMA ([3]; CSF, from total flux): 2.07 ± 0.38 nmol/min/g and 2.067 ± 0.38 nmol/min/g
Km ([3]; CSF, from total flux): 30.6 ± 25.4 µM
Kd (constant of non-saturable diffusion) of [3H]-ADMA ([3]; caudate nucleus): 2.82 µL/min/g
Vmax (maximal influx rate of the saturable component) of [3H]-ADMA ([3]; caudate nucleus): 0.423 ± 0.061 nmol/min/g
Km ([3]; caudate nucleus, saturable flux, sucrose space increased at 500 µM ADMA): 25.2 ± 16.6 µM
Kd (constant of non-saturable diffusion) of [3H]-ADMA ([3]; cerebellum): 5.20 µL/min/g
Vmax (maximal influx rate of the saturable component) of [3H]-ADMA ([3]; cerebellum): 0.235 ± 0.011 nmol/min/g
Km ([3]; cerebellum, saturable flux, sucrose space increased at 500 µM ADMA): 24.7 ± 5.32 µM
RTissue ([3]; choroid plexuses, pituitary gland and pineal gland, 10 minutes): > 100%
Vmax (maximal influx rate of the saturable component) of [3H]-ADMA ([3]; frontal cortex): 0.307 ± 0.017 nmol/min/g
Km ([3]; frontal cortex, saturable flux): 29.1 ± 7.19 µM
Kd (constant of non-saturable diffusion) of [3H]-ADMA ([3]; frontal cortex, slope of total flux at 100 and 500 μM): 4.40 µL/min/g
Kd (constant of non-saturable diffusion) of [3H]-ADMA ([3]; hippocampus): 3.23 µL/min/g
Vmax (maximal influx rate of the saturable component) of [3H]-ADMA ([3]; hippocampus): 0.24 ± 0.02 nmol/min/g
Km ([3]; hippocampus, saturable flux, sucrose space increased at 500 µM ADMA): 15.8 ± 6.86 µM
Kd (constant of non-saturable diffusion) of [3H]-ADMA ([3]; homogenate): 3.34 µL/min/g
Vmax (maximal influx rate of the saturable component) of [3H]-ADMA ([3]; homogenate): 0.155 ± 0.013 nmol/min/g
Km ([3]; homogenate, saturable flux): 13.6 ± 5.26 µM
Kd (constant of non-saturable diffusion) of [3H]-ADMA ([3]; hypothalamus): 5.18 µL/min/g
Vmax (maximal influx rate of the saturable component) of [3H]-ADMA ([3]; hypothalamus): 0.482 ± 0.049 nmol/min/g
Km ([3]; hypothalamus, saturable flux): 23.2 ± 10.8 µM
Kd (constant of non-saturable diffusion) of [3H]-ADMA ([3]; occipital cortex): 4.65 µL/min/g
Vmax (maximal influx rate of the saturable component) of [3H]-ADMA ([3]; occipital cortex): 0.321 ± 0.034 nmol/min/g
Km ([3]; occipital cortex, saturable flux, sucrose space increased at 500 µM ADMA): 25.9 ± 12.6 µM
Kd (constant of non-saturable diffusion) of [3H]-ADMA ([3]; pellet): 0.38 µL/min/g
Vmax (maximal influx rate of the saturable component) of [3H]-ADMA ([3]; pellet): 0.071 ± 0.008 nmol/min/g
Km ([3]; pellet, saturable flux): 34 ± 16.8 µM
Kd (constant of non-saturable diffusion) of [3H]-ADMA ([3]; pons): 3.62 µL/min/g
Vmax (maximal influx rate of the saturable component) of [3H]-ADMA ([3]; pons): 0.325 ± 0.043 nmol/min/g
Km ([3]; pons, saturable flux, sucrose space increased at 500 µM ADMA): 18.2 ± 10.8 µM
Kd (constant of non-saturable diffusion) of [3H]-ADMA ([3]; supernatant): 2.35 µL/min/g
Vmax (maximal influx rate of the saturable component) of [3H]-ADMA ([3]; supernatant): 0.208 ± 0.036 nmol/min/g
Km ([3]; supernatant, saturable flux): 68.5 ± 44.4 µM
Kd (constant of non-saturable diffusion) of [3H]-ADMA ([3]; thalamus): 4.33 µL/min/g
Vmax (maximal influx rate of the saturable component) of [3H]-ADMA ([3]; thalamus): 0.278 ± 0.033 nmol/min/g
Km ([3]; thalamus, saturable flux, sucrose space increased at 500 µM ADMA): 18.5 ± 9.89 µM
